According to PubChem BioAssay AID1963450 (Molecular Pharmacology Branch, DTP, NCI, 2024):
pIC50: −log10 of the molar value. Where “and” joins values, the source holds several entries; their conditions need not be identical. Equal entries are not always repeated. Values belong to the compound of their own block, whether it stands above or below them.

Test system: 556581-035-R-J1-PDC complex spheroid growth
Assay: Anticancer human tumor 556581-035-R-J1-PDC patient-derived ovarian carcinoma cell line growth inhibition [Asc]
Details: for viability, T/C: stronger effect = lower value
How it was run: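 Tumor cells were grown as complex spheroids with human endothelial cells (HUVEC) and human mesenchymal stem cells as stroma. Agents were tested alone and in combination, in half-log steps down from the clinical Cmax, or from 10 microM where Cmax was unknown.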

[1] = curve of first compound, second compound 0.1 µM
[2] = curve of first compound, second compound 0.316 µM
[3] = curve of first compound, second compound 1 µM
[4] = second compound 0.1 µM, first compound 0.0316 µM
[5] = second compound 0.1 µM, first compound 0.1 µM
[6] = second compound 0.1 µM, first compound 0.316 µM
[7] = second compound 0.1 µM, first compound 1 µM
[8] = second compound 0.1 µM, first compound 3.16 µM
[9] = second compound 0.1 µM, first compound 10 µM
[10] = second compound 0.316 µM, first compound 0.0316 µM
[11] = second compound 0.316 µM, first compound 0.1 µM
[12] = second compound 0.316 µM, first compound 0.316 µM
[13] = second compound 0.316 µM, first compound 1 µM
[14] = second compound 0.316 µM, first compound 3.16 µM
[15] = second compound 0.316 µM, first compound 10 µM
[16] = second compound 1 µM, first compound 0.0316 µM
[17] = second compound 1 µM, first compound 0.1 µM
[18] = second compound 1 µM, first compound 0.316 µM
[19] = second compound 1 µM, first compound 1 µM
[20] = second compound 1 µM, first compound 3.16 µM
[21] = second compound 1 µM, first compound 10 µM
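Further: spheroids exposed to agents for 7 days before viability read.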

SMILES: C#Cc1c(F)ccc2cc(O)cc(-c3ncc4c(N5CC6CCC(C5)N6)nc(OCC56CCCN5CC(F)C6)nc4c3F)c12 (stereo not drawn) + Cc1c(S(C)(=O)=O)c(-c2cc(F)cc(N3CCN(c4ccc(NS(=O)(=O)c5ccc(NC(CCN6CCC(C(=O)OCCCP(=O)(O)O)CC6)CSc6ccccc6)c(S(=O)(=O)C(F)(F)F)c5)cc4)CC3)c2)c(-c2ccc(Cl)cc2)n1C(C)C
pIC50 [1]: < 5.00 | pIC50 [2]: < 5.00 | pIC50 [3]: 5.12 | pIC50 (curve of first compound, second compound 3.16 µM): 5.05 | pIC50 (curve of first compound, second compound 10 µM): 5.92 | viability, T/C [4]: 82% | viability, T/C [5]: 83.8% | viability, T/C [6]: 63.6% | viability, T/C [7]: 64.5% | viability, T/C [8]: 79.7% | viability, T/C [9]: 71.9% | viability, T/C [10]: 55% | viability, T/C [11]: 79.5% | viability, T/C [12]: 81.9% | viability, T/C [13]: 70.1% | viability, T/C [14]: 63.6% | viability, T/C [15]: 63.5% | viability, T/C [16]: 73.3% | viability, T/C [17]: 65.3% | viability, T/C [18]: 63.8% | viability, T/C [19]: 65.1% | viability, T/C [20]: 59.2% | viability, T/C [21]: 46.9% | viability, T/C (second compound 3.16 µM, first compound 0.0316 µM): 51.7% | viability, T/C (second compound 3.16 µM, first compound 0.1 µM): 68.3% | viability, T/C (second compound 3.16 µM, first compound 0.316 µM): 67.3% | viability, T/C (second compound 3.16 µM, first compound 1 µM): 60.7% | viability, T/C (second compound 3.16 µM, first compound 3.16 µM): 57.8% | viability, T/C (second compound 3.16 µM, first compound 10 µM): 49.1% | viability, T/C (second compound 10 µM, first compound 0.0316 µM): 64.8% | viability, T/C (second compound 10 µM, first compound 0.1 µM): 58.2% | viability, T/C (second compound 10 µM, first compound 0.316 µM): 59.9% | viability, T/C (second compound 10 µM, first compound 1 µM): 47% | viability, T/C (second compound 10 µM, first compound 3.16 µM): 47.3% | viability, T/C (second compound 10 µM, first compound 10 µM): 39.6%

SMILES: C#Cc1c(F)ccc2cc(O)cc(-c3ncc4c(N5CC6CCC(C5)N6)nc(OCC56CCCN5CC(F)C6)nc4c3F)c12 (stereo not drawn)
viability, T/C (compound 0.0316 µM): 101% and 92.2% and 88% | viability, T/C (compound 0.1 µM): 105% and 102% and 87.2% | viability, T/C (compound 0.316 µM): 94.2% and 81% and 90.1% | viability, T/C (compound 1 µM): 102% and 80.5% and 75.8% | viability, T/C (compound 3.16 µM): 97.2% and 89.5% and 113% | viability, T/C (compound 10 µM): 91.1% and 85.6% and 83.9% | pIC50 (curve of compound): < 5.00

SMILES: Cc1c(S(C)(=O)=O)c(-c2cc(F)cc(N3CCN(c4ccc(NS(=O)(=O)c5ccc(NC(CCN6CCC(C(=O)OCCCP(=O)(O)O)CC6)CSc6ccccc6)c(S(=O)(=O)C(F)(F)F)c5)cc4)CC3)c2)c(-c2ccc(Cl)cc2)n1C(C)C (stereo not drawn)
viability, T/C (compound 0.1 µM): 80.6% [middle of 14 runs] | viability, T/C (compound 0.316 µM): 73.5% [middle of 14 runs] | viability, T/C (compound 1 µM): 66.1% [middle of 14 runs] | viability, T/C (compound 3.16 µM): 66.3% [middle of 14 runs] | viability, T/C (compound 10 µM): 61.9% [middle of 14 runs] | pIC50 (compound alone, run of 10/11/2022): < 5.00

Continued, in another order:

pIC50 (curve of first compound, second compound 0.01 µM): < 5.00 | pIC50 (curve of first compound, second compound 0.0316 µM): < 5.00 | pIC50 [1]: < 5.00 | pIC50 [2]: < 5.00 | pIC50 [3]: 5.00
SMILES: O=C(c1cc(Cc2n[nH]c(=O)c3ccccc23)ccc1F)N1CCN(C(=O)C2CC2)CC1 + CNC(C)C(=O)NC1CN(S(=O)(=O)c2cccc(S(=O)(=O)N3CCC4CCC(C(=O)NC(c5ccccc5)c5ccccc5)N4C(=O)C(NC(=O)C(C)NC)C3)c2)CCC2CCC(C(=O)NC(c3ccccc3)c3ccccc3)N2C1=O
viability, T/C (second compound 0.01 µM, first compound 0.0316 µM): 83.4% | viability, T/C (second compound 0.01 µM, first compound 0.1 µM): 74.5% | viability, T/C (second compound 0.01 µM, first compound 0.316 µM): 88.2% | viability, T/C (second compound 0.01 µM, first compound 1 µM): 93.8% | viability, T/C (second compound 0.01 µM, first compound 3.16 µM): 52.8% | viability, T/C (second compound 0.01 µM, first compound 10 µM): 56.8% | viability, T/C (second compound 0.0316 µM, first compound 0.0316 µM): 89.3% | viability, T/C (second compound 0.0316 µM, first compound 0.1 µM): 88.7% | viability, T/C (second compound 0.0316 µM, first compound 0.316 µM): 87.3% | viability, T/C (second compound 0.0316 µM, first compound 1 µM): 88.8% | viability, T/C (second compound 0.0316 µM, first compound 3.16 µM): 55.3% | viability, T/C (second compound 0.0316 µM, first compound 10 µM): 73.1% | viability, T/C [4]: 84.4% | viability, T/C [5]: 67% | viability, T/C [6]: 67.2% | viability, T/C [7]: 61.5% | viability, T/C [8]: 49.1% | viability, T/C [9]: 61.2% | viability, T/C [10]: 88% | viability, T/C [11]: 76.3% | viability, T/C [12]: 86% | viability, T/C [13]: 76% | viability, T/C [14]: 50% | viability, T/C [15]: 63.2% | viability, T/C [16]: 76.8% | viability, T/C [17]: 84.1% | viability, T/C [18]: 73.8% | viability, T/C [19]: 88% | viability, T/C [20]: 45.7% | viability, T/C [21]: 61.2%

pIC50 (curve of first compound, second compound 0.03 µM): < 7.00 | pIC50 (curve of first compound, second compound 0.0949 µM): < 7.00 | pIC50 (curve of first compound, second compound 0.3 µM): < 7.00 | pIC50 (curve of first compound, second compound 0.949 µM): < 7.00 | pIC50 (curve of first compound, second compound 3 µM): < 7.00
SMILES: Cn1ncnc1[C@H]1c2n[nH]c(=O)c3cc(F)cc(c23)N[C@@H]1c1ccc(F)cc1 + CCN1C(C(=O)NC23CCC(C(=O)O)(CC2)CC3)C(c2cccc(Cl)c2F)C2(C(=O)Nc3cc(Cl)ccc32)C12CCCCC2
viability, T/C (second compound 0.03 µM, first compound 0.000316 µM): 110% | viability, T/C (second compound 0.03 µM, first compound 0.001 µM): 102% | viability, T/C (second compound 0.03 µM, first compound 0.00316 µM): 94.4% | viability, T/C (second compound 0.03 µM, first compound 0.01 µM): 87.7% | viability, T/C (second compound 0.03 µM, first compound 0.0316 µM): 94.3% | viability, T/C (second compound 0.03 µM, first compound 0.1 µM): 95.2% | viability, T/C (second compound 0.0949 µM, first compound 0.000316 µM): 105% | viability, T/C (second compound 0.0949 µM, first compound 0.001 µM): 100% | viability, T/C (second compound 0.0949 µM, first compound 0.00316 µM): 116% | viability, T/C (second compound 0.0949 µM, first compound 0.01 µM): 96.1% | viability, T/C (second compound 0.0949 µM, first compound 0.0316 µM): 94.9% | viability, T/C (second compound 0.0949 µM, first compound 0.1 µM): 92.3% | viability, T/C (second compound 0.3 µM, first compound 0.000316 µM): 102% | viability, T/C (second compound 0.3 µM, first compound 0.001 µM): 130% | viability, T/C (second compound 0.3 µM, first compound 0.00316 µM): 97.2% | viability, T/C (second compound 0.3 µM, first compound 0.01 µM): 107% | viability, T/C (second compound 0.3 µM, first compound 0.0316 µM): 87.1% | viability, T/C (second compound 0.3 µM, first compound 0.1 µM): 83.4% | viability, T/C (second compound 0.949 µM, first compound 0.000316 µM): 109% | viability, T/C (second compound 0.949 µM, first compound 0.001 µM): 93.8% | viability, T/C (second compound 0.949 µM, first compound 0.00316 µM): 102% | viability, T/C (second compound 0.949 µM, first compound 0.01 µM): 96.6% | viability, T/C (second compound 0.949 µM, first compound 0.0316 µM): 90.6% | viability, T/C (second compound 0.949 µM, first compound 0.1 µM): 92.7% | viability, T/C (second compound 3 µM, first compound 0.000316 µM): 97% | viability, T/C (second compound 3 µM, first compound 0.001 µM): 94.8% | viability, T/C (second compound 3 µM, first compound 0.00316 µM): 78.7% | viability, T/C (second compound 3 µM, first compound 0.01 µM): 87% | viability, T/C (second compound 3 µM, first compound 0.0316 µM): 84% | viability, T/C (second compound 3 µM, first compound 0.1 µM): 86.8%
